From ChEMBL document CHEMBL5154912, “Penicillin Derivatives Inhibit the SARS-CoV-2 Main Protease by Reaction with Its Nucleophilic Cysteine” (J Med Chem, 2022) come the findings set out here.

Activity calls are given as the source filed them. No cut-off for these calls is given here.

The target in assay [1] is Replicase polyprotein 1ab (Severe acute respiratory syndrome coronavirus 2) (UniProt P0DTD1). Briefly: Inhibition of recombinant SARS-CoV-2 Main protease at Cys145 residue by non-covalent binding incubated for 45 mins by MS analysis.
The target is the same in assay [2]. In words: Inhibition of recombinant SARS-CoV-2 Main protease at Cys145 residue by covalent modification at 10 uM incubated for 45 mins by SPE-MS analysis.
Assay [3] has the same target. In words: Inhibition of recombinant SARS-CoV-2 Main protease at Cys145 residue by covalent modification at 33 uM incubated for 45 mins by MS analysis.
Assay [4] addresses Replicase polyprotein 1ab (Severe acute respiratory syndrome coronavirus 2, UniProt P0DTD1). Briefly: Inhibition of recombinant SARS-CoV-2 Main protease using ALNDFSNSGSDVLYQPPQTSITSAVLQ/SGFRKMAFPS-NH2 as substrate preincubated for 45 to 75 mins followed by substrate addition measured after 6 mins by SPE-MS inhibition assay.

For `CC1(C)[C@H](C(=O)OCc2ccccc2)N2C(=O)[C@@H](NC(=O)COc3ccccc3)C[C@H]2S1(=O)=O`, the inhibition entry in assay [1] is “Active”.

Consider `CC1(C)[C@H](C(=O)OCc2ccccc2)N2C(=O)[C@@H](NC(=O)COc3ccccc3)[C@H]2S1(=O)=O`, for which the inhibition result in assay [2] is “Active”. Consider `C#CCOC(=O)[C@@H]1N2C(=O)[C@@H](NC(=O)COc3ccccc3)[C@H]2S(=O)(=O)C1(C)C`, for which the inhibition result in assay [3] was “Active”. In the case of `CC1(C)[C@H](C(=O)OCOc2ccccc2)N2C(=O)[C@@H](NC(=O)COc3ccccc3)[C@H]2S1(=O)=O`, the IC50 in assay [4] was 6.6 µM.
